Legend:
Male CD-1 mice = test: Inhibition of apomorphine induced climbing; type: in vivo; conditions: for ED50: Mus musculus; for ranking of activity in apomorphine climbing assay: apomorphine climbing in mice
Description: With respect to the expected clinical application of the compounds of the present invention in addition to their receptor binding profile their in vivo efficacy is a crucial issue as well. Therefore, in vivo potency and efficacy of the compounds of formula (I) were studied in the apomorphine climbing assay, an animal screening test for antipsychotic activity.
5. Inhibition of Apomorphine Induced Climbing
Male CD-1 mice weighing 20-25 g were injected orally (n=12) with the test compound or vehicle. Fifty minutes later the animals were placed into cylindrical cages with walls of vertical metal bars. After 10 minutes habituation the mice were treated with apomorphine (1.5 mg/kg sc.). […] Scores were summed for each individual and group means were calculated. Drug effect was expressed and plotted as percentage inhibition of the apomorphine induced behaviour.

[1] = molecular target: T1, rat recombinant D3 receptors (Rattus norvegicus, UniProt P19020); test: D3 receptor binding ([3H]spiperone); conditions: rat recombinant D3 receptors expressed in Sf9 cells
T1 construct: purchased Perkin-Elmer 6110139; host or cells: Sf9 cells

α1 receptor = test: α-1 receptor binding ([3H]-prazosine, rat cortical membrane)
Description: α1 receptor binding study was performed according to the methods described by Greengrass and Bremner (Eur. J. Pharmacol., 55:323-326, 1979) on rat cortical membrane preparation using [^3H]-prazosine (0.22-0.37 nM) as ligand. The non-specific binding was determined in the presence of 10 μM phentolamine.

5-HT1A receptor = molecular target: T2, 5-HT1A receptor (Rattus norvegicus, UniProt P19327); test: 5-HT1A binding ([3H]8-OH-DPAT, rat hippocampal membrane); conditions: [3H]8-hydroxy-2-(di-n-propylamino)-tetralin
T2 construct: on rat hippocampal membrane preparation; from tissue; host or cells: rat hippocampus membranes
T2 sequence (P19327 1-422): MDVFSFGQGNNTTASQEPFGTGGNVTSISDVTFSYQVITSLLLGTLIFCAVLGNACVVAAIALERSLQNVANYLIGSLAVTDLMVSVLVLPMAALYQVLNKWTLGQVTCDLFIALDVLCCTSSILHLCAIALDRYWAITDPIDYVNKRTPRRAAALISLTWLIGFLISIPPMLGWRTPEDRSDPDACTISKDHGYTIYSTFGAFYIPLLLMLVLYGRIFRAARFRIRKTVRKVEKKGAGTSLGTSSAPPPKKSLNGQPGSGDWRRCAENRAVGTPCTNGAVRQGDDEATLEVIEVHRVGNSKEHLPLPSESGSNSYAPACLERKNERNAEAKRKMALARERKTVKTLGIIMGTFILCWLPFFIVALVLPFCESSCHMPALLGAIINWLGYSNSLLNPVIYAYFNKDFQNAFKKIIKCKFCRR
Description: The non-specific binding was determined in the presence of 10 μM serotonin creatinine sulphate.

D2 receptor = D2 receptor (Rattus norvegicus, UniProt P61169); test: D2 receptor binding ([3H]spiperone, rat brain striatal membrane)
Description: Non-specific binding was determined in the presence of 1 μM (+) butaclamol.

T1 sequence (P19020 whole entry): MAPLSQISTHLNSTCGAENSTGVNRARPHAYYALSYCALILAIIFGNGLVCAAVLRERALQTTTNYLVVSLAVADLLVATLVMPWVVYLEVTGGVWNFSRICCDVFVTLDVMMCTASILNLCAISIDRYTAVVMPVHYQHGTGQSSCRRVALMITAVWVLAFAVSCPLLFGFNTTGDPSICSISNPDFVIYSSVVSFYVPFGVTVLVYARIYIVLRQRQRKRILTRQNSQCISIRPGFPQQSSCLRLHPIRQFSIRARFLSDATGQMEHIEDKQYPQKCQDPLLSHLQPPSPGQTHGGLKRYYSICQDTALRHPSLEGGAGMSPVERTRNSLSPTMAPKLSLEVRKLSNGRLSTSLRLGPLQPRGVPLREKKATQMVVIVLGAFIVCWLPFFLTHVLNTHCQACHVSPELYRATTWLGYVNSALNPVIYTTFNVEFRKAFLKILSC
D2 receptor, sequence (P61169 1-415 isoform P61169-2): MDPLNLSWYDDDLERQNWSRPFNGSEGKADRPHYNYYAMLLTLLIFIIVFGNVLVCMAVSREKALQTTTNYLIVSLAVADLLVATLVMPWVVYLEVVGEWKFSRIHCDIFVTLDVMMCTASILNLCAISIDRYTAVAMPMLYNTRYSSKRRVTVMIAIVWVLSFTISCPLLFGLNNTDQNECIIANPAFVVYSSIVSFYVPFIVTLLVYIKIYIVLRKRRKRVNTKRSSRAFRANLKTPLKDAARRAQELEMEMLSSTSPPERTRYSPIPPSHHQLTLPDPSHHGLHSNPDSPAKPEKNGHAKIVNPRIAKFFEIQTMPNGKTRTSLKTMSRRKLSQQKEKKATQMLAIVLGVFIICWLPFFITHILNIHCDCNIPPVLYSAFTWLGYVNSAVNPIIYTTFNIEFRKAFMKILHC

Row | Structure (SMILES) | IC50 [1] | IC50 (α1 receptor) | IC50 (5-HT1A receptor) | IC50 (D2 receptor) | melting point | ED50 (Male CD-1 mice) | ranking of activity in apomorphine climbing assay (Male CD-1 mice)
1 | O=C1CCc2ccc(OCCCCN3CCN(c4cccc(Cl)c4Cl)CC3)cc2N1 [Aripiprazole, reference compound] | – | – | – | – | – | 1 mg/kg | –
2 | NC(=O)N[C@H]1CC[C@H](CCN2CCN(c3cccc4c3CCC4)CC2)CC1 [Compound 7, trans-1-{4-[2-[4-(indan-4-yl)-piperazin-1-yl]-ethyl]-cyclohexyl}-urea] | – | – | – | – | 204 to 206 °C | – | –
3 | CN(C)C(=O)N[C@H]1CC[C@H](CN2CCN(c3cccc4c3CCC4)CC2)CC1 [Compound 8, trans-1-{4-[[4-(indan-4-yl)-piperazin-1-yl]-methyl]-cyclohexyl}-3,3-dimethyl-urea] | – | – | – | – | 152 to 154 °C | – | –
4 | CCC(=O)N[C@H]1CC[C@H](CCN2CCN(c3cccc4c3CCCC4)CC2)CC1 [Compound 10, trans-N-{4-[2-[4-(5,6,7,8-tetrahydronaphthalen-1-yl)-piperazin-1-yl]-ethyl]-cyclohexyl}-propionamide] | < 2 nM | > 200 nM | 1 to 20 nM | 10 to 40 nM | 182 to 185 °C | 0.35 mg/kg | –
5 | CN(C)C(=O)N[C@H]1CC[C@H](CCN2CCN(c3cccc4c3CCCC4)CC2)CC1 [Compound 11, trans-1-{4-[2-[4-(5,6,7,8-tetrahydronaphthalen-1-yl)-piperazin-1-yl]-ethyl]-cyclohexyl}-3,3-dimethyl-urea] | < 2 nM | 40 to 200 nM | 1 to 20 nM | 10 to 40 nM | 190 to 193 °C | 0.23 mg/kg | –
6 | O=C(N[C@H]1CC[C@H](CCN2CCN(c3cccc4c3CCCC4)CC2)CC1)N1CCOCC1 [Compound 12, trans-N-{4-[2-[4-(5,6,7,8-tetrahydronaphthalen-1-yl)-piperazin-1-yl]-ethyl]-cyclohexyl}-morpholine-4-carboxamide] | < 2 nM | 40 to 200 nM | 1 to 20 nM | 10 to 40 nM | 178 to 180 °C | 0.2 mg/kg | –
7 | Cc1cc2c(s1)Nc1ccccc1N=C2N1CCN(C)CC1 [Olanzapine, reference compound] | – | – | – | – | – | 1.3 mg/kg | –

Continued, in another order:

Row | IC50 [1] | IC50 (α1 receptor) | IC50 (5-HT1A receptor) | IC50 (D2 receptor) | melting point | Structure (SMILES) | ED50 (Male CD-1 mice) | ranking of activity in apomorphine climbing assay (Male CD-1 mice)
8 | < 2 nM | 40 to 200 nM | 1 to 20 nM | 10 to 40 nM | 202 to 204 °C | CC(=O)N[C@H]1CC[C@H](CCN2CCN(c3cccc4c3CCC4)CC2)CC1 [Compound 1, trans-N-{4-[2-[4-(indan-4-yl)-piperazin-1-yl]-ethyl]-cyclohexyl}-acetamide] | 0.14 mg/kg | most active
9 | < 2 nM | 40 to 200 nM | 1 to 20 nM | 10 to 40 nM | 194 to 196 °C | CCC(=O)N[C@H]1CC[C@H](CCN2CCN(c3cccc4c3CCC4)CC2)CC1 [Compound 2, trans-N-{4-[2-[4-(indan-4-yl)-piperazin-1-yl]-ethyl]-cyclohexyl}-propionamide] | 0.21 mg/kg | –
10 | < 2 nM | 40 to 200 nM | 1 to 20 nM | 10 to 40 nM | 150 to 152 °C | CN(C)C(=O)N[C@H]1CC[C@H](CCN2CCN(c3cccc4c3CCC4)CC2)CC1 [Compound 3, trans-1-{4-[2-[4-(indan-4-yl)-piperazin-1-yl]-ethyl]-cyclohexyl}-3,3-dimethyl-urea] | 0.11 mg/kg | most active
11 | < 2 nM | 40 to 200 nM | 1 to 20 nM | 10 to 40 nM | 157 to 159 °C | CCN(CC)C(=O)N[C@H]1CC[C@H](CCN2CCN(c3cccc4c3CCC4)CC2)CC1 [Compound 4, trans-1-{4-[2-[4-(indan-4-yl)-piperazin-1-yl]-ethyl]-cyclohexyl}-3,3-diethyl-urea] | 0.46 mg/kg | –
12 | < 2 nM | 40 to 200 nM | 1 to 20 nM | 10 to 40 nM | 198 to 200 °C | CCNC(=O)N[C@H]1CC[C@H](CCN2CCN(c3cccc4c3CCC4)CC2)CC1 [Compound 5, trans-1-{4-[2-[4-(indan-4-yl)-piperazin-1-yl]-ethyl]-cyclohexyl}-3-ethyl-urea] | 0.47 mg/kg | –
13 | < 2 nM | 40 to 200 nM | 1 to 20 nM | 10 to 40 nM | 181 to 182 °C | O=C(N[C@H]1CC[C@H](CCN2CCN(c3cccc4c3CCC4)CC2)CC1)N1CCOCC1 [Compound 6, trans-N-{4-[2-[4-(indan-4-yl)-piperazin-1-yl]-ethyl]-cyclohexyl}-morpholine-4-carboxamide] | 0.16 mg/kg | most active
14 | < 2 nM | > 200 nM | 1 to 20 nM | 10 to 40 nM | 187 to 189 °C | CC(=O)N[C@H]1CC[C@H](CCN2CCN(c3cccc4c3CCCC4)CC2)CC1 [Compound 9, trans-N-{4-[2-[4-(5,6,7,8-tetrahydronaphthalen-1-yl)-piperazin-1-yl]-ethyl]-cyclohexyl}-acetamide] | 0.26 mg/kg | –
